Laboratory results: patent publication US20210038607A1, “OXADIAZOLYLTHIOPHENE DERIVATIVES USEFUL AS HISTONE DEACETYLASE INHIBITORS” (Karus Therapeutics Limited, priority 2018, published 2021)

How the values were obtained:
Human HDAC9 = target: T1, Human HDAC9 (Homo sapiens, UniProt Q9UKV0); experiment: HDAC9 biochemical assay, class IIa-specific substrate; settings: read-out: HDAC Isoform IC50 (nM) 9
T1 construct: amino acids 604-1066 with C-terminal His tag; His (C); host or cells: baculovirus expression system
T1 sequence (Q9UKV0 604-1066 isoform Q9UKV0-5): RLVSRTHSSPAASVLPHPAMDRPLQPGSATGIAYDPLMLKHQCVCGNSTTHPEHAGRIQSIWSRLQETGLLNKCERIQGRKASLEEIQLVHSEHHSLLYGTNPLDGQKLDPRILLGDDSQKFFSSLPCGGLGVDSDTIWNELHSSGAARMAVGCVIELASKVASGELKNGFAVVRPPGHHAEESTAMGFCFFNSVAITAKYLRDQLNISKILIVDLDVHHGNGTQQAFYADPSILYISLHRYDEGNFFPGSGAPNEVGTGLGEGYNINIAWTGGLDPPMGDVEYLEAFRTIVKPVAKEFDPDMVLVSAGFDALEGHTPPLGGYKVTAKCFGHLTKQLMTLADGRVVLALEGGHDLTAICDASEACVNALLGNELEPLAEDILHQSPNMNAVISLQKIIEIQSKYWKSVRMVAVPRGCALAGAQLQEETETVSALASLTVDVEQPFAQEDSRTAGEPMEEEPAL
Method in brief: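 HDAC9 residues 604-1066 (C-terminal His tag, baculovirus-expressed) at 0.06 ng/ul with 50 μM class IIa substrate Boc-Lys(trifluoroacetyl)-AMC in Tris-HCl pH 8.0 buffer with BSA and 1% DMSO. 30 min at room temperature, then developer added; fluorescence read at 360/460 nm Ex/Em.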

Human HDAC1 = target: T2, Human HDAC1 (Homo sapiens, UniProt Q13547); experiment: HDAC1 biochemical assay, AMC-labeled peptide substrate; settings: read-out: HDAC Isoform IC50 (nM) 1
T2 construct: full length with C-terminal His-tag and C-terminal FLAG-tag; His (C); FLAG (C); host or cells: baculovirus expression system
T2 sequence (Q13547 whole entry, canonical isoform): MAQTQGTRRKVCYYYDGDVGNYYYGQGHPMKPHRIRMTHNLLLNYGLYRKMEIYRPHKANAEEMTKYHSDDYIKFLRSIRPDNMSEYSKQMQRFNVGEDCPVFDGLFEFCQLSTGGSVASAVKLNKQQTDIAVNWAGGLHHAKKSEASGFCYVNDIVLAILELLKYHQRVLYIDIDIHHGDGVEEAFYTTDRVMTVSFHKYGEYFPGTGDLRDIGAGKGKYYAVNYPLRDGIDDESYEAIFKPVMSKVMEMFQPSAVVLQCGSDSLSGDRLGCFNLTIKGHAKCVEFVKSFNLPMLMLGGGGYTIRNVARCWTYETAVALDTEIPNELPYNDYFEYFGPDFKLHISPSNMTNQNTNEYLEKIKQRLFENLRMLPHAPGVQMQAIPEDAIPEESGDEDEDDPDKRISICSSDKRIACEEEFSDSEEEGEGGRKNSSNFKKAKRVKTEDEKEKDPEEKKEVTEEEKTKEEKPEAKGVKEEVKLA
Method in brief: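 Baculovirus-expressed full-length human HDAC1 with His and FLAG tags, 0.3 ng/ul, incubated 1 h at 30° C with compound and 50 μM RHKK(Ac)AMC in Tris pH 8.0 buffer with BSA and 1% DMSO. Developer then releases AMC from deacetylated substrate; fluorescence read at 360/460 nm.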

Human HDAC4 = target: T3, Human HDAC4 (Homo sapiens, UniProt P56524); experiment: HDAC4 biochemical assay, class IIa-specific substrate; settings: read-out: HDAC Isoform IC50 (nM) 4
T3 construct: amino acids 627-1085 with N-terminal GST tag; GST (N); host or cells: baculovirus expression system
T3 sequence (P56524 627-1084 limits assumed): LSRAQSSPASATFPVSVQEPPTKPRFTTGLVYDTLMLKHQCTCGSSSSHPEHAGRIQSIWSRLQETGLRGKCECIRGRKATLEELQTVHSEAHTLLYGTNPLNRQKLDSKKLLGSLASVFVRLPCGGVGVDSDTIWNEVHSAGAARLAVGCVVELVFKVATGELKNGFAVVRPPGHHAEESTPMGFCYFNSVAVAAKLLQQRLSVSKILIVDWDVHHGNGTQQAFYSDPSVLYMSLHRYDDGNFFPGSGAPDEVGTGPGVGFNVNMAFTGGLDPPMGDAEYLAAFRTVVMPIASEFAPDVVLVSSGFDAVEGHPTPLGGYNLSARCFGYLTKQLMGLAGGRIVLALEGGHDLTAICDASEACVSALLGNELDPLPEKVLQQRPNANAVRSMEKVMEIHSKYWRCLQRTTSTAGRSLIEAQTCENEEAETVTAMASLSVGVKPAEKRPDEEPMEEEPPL
Method in brief: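 GST-tagged human HDAC4 (aa 627-1085, baculovirus) at 0.004 ng/ul was incubated 30 min at room temperature with 50 μM class IIa-specific substrate BOC-Lys(trifluoroacetyl)-AMC in Tris-HCl pH 8.0 buffer with BSA, 1% DMSO. Developer then released AMC, read at 360/460 nm.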

Human HDAC5 = target: T4, Human HDAC5 (Homo sapiens, UniProt Q9UQL6); experiment: HDAC5 biochemical assay, class IIa-specific substrate; settings: read-out: HDAC Isoform IC50 (nM) 5
T4 construct: full length with C-terminal His tag, MW=51.1 kDa; His (C); host or cells: baculovirus expression system
T4 sequence (Q9UQL6 656-1122 limits assumed): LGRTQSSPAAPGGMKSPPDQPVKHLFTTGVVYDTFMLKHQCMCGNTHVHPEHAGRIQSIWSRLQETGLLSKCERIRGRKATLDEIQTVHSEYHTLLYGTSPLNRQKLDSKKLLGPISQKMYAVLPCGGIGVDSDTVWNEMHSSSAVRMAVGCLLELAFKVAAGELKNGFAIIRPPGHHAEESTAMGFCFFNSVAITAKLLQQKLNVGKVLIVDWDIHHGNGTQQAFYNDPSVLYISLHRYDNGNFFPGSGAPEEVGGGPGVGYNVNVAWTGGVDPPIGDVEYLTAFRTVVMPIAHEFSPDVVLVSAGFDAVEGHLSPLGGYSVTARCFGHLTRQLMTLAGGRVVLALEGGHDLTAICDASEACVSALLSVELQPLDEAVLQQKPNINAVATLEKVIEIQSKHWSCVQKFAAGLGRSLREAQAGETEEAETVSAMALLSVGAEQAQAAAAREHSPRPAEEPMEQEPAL
Method in brief: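 Full-length C-terminal His-tagged HDAC5 from baculovirus (0.05 ng/ul) incubated 30 min at room temperature with 50 μM Boc-Lys(trifluoroacetyl)-AMC and compound, Tris pH 8.0 buffer with BSA, 1% DMSO. Developer then releases AMC; fluorescence 360/460 nm.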

Recombinant human HDAC6 = target: T5, Recombinant human HDAC6 (Homo sapiens, UniProt Q9UBN7); experiment: HDAC6 biochemical assay, AMC-labeled peptide substrate; settings: HDAC6; read-out: HDAC Isoform IC50 (nM) 6
T5 construct: full length, MW=159 kDa; GST (N); host or cells: Sf9 insect cells (baculovirus)
T5 sequence (Q9UBN7 1-1215): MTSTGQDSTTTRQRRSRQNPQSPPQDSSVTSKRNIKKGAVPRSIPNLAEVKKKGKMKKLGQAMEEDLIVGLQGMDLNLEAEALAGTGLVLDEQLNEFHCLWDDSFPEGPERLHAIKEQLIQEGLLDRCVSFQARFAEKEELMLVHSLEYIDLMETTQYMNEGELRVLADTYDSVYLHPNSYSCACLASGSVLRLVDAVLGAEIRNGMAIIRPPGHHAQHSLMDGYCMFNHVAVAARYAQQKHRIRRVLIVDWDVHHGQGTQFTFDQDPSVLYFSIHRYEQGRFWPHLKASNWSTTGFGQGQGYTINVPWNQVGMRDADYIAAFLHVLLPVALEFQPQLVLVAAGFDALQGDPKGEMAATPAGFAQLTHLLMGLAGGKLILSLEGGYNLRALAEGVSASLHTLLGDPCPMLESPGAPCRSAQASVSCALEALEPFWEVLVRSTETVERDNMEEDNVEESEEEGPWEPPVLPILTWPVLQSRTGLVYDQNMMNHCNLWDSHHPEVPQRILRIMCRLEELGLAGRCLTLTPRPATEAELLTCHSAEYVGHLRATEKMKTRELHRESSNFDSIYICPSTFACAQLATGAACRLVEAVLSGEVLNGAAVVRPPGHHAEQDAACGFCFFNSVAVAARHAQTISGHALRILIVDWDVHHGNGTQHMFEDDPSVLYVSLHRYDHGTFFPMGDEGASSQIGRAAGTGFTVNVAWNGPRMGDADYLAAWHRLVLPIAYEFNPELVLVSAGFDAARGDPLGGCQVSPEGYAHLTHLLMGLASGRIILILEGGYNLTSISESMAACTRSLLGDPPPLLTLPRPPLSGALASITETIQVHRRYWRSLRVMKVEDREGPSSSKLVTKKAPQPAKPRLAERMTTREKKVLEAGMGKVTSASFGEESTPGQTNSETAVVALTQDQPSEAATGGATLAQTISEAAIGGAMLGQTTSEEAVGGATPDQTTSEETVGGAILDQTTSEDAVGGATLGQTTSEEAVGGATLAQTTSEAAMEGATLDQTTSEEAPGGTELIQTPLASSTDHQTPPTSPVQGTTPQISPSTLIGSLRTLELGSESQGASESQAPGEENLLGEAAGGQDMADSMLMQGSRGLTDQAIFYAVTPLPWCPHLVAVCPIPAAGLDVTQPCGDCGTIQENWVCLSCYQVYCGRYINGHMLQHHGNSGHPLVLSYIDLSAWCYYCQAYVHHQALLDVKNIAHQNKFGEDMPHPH
Method in brief: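 Two-step fluorogenic read-out: enzyme deacetylates 50 μM RHKK(Ac)AMC for 1 h at 30° C in pH 8.0 Tris buffer with BSA and 1% DMSO, then developer cleavage gives signal at Ex 360/Em 460. Enzyme: 0.3 ng/ul recombinant full-length human HDAC6, GST-tagged, Sf9-expressed.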

Human HDAC7 = target: T6, Human HDAC7 (Homo sapiens, UniProt Q8WUI4); experiment: HDAC7 biochemical assay, class IIa-specific substrate; settings: read-out: HDAC Isoform IC50 (nM) 7
T6 construct: (a.a. 518-end) with N-terminal GST tag; GST (N); host or cells: baculovirus expression system
T6 sequence (Q8WUI4 518-952 limits assumed): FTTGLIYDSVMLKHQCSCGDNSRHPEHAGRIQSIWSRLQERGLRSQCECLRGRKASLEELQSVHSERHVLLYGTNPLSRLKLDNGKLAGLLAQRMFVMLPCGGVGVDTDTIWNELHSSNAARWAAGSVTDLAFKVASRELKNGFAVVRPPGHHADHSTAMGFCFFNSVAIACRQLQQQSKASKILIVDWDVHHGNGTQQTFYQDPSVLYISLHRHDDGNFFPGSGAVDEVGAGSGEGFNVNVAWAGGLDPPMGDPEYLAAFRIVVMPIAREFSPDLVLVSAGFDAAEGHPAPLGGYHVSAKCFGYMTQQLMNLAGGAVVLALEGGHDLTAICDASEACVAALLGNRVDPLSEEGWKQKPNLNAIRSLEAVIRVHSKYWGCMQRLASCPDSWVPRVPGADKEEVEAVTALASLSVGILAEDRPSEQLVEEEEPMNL
Method in brief: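 GST-tagged HDAC7 (a.a. 518-end, baculovirus-expressed) at 0.001 ng/ul with 50 μM Boc-Lys(trifluoroacetyl)-AMC substrate, 30 min at room temperature in pH 8.0 Tris buffer with BSA, 1% DMSO final. Developer then releases AMC; fluorescence read at 360/460 nm.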

SMILES | IC50 (Human HDAC9) [nM] | IC50 (Human HDAC1) [nM] | IC50 (Human HDAC4) [nM] | IC50 (Human HDAC5) [nM] | IC50 (Recombinant human HDAC6) [nM] | IC50 (Human HDAC7) [nM]
COc1ncncc1N(Cc1ccc(-c2noc(C(F)(F)F)n2)s1)c1cnccn1 [Example CY, 4-Methoxy-N-(pyrazin-2-yl)-N-({5-[5-(trifluoromethyl)-1,2,4-oxadiazol-3-yl]thiophen-2-yl}methyl)pyrimidin-5-amine] | ≤ 10000 | > 10000 | ≤ 1000 | ≤ 500 | ≤ 10000 | ≤ 10000
FC(F)(F)c1nc(-c2ccc(CN(c3cnccn3)c3ncccc3C3CC3)s2)no1 [Example AM, N-(3-Cyclopropylpyridin-2-yl)-N-({5-[5-(trifluoromethyl)-1,2,4-oxadiazol-3-yl]thiophen-2-yl}methyl)pyrazin-2-amine] | ≤ 10000 | > 10000 | ≤ 500 | ≤ 500 | ≤ 10000 | ≤ 1000
Cc1cnc(N(Cc2ccc(-c3noc(C(F)(F)F)n3)s2)c2cc(C(F)(F)F)cnn2)cn1 [Example EO, N-(5-Methylpyrazin-2-yl)-5-(trifluoromethyl)-N-({5-[5-(trifluoromethyl)-1,2,4-oxadiazol-3-yl]thiophen-2-yl}methyl)pyridazin-3-amine] | > 10000 | > 10000 | ≤ 10000 | ≤ 10000 | ≤ 10000 | ≤ 10000
FC(F)(F)c1nc(-c2ccc(CN(c3ccc(C4CC4)cn3)c3cnccn3)s2)no1 [Example AA, N-(5-Cyclopropylpyridin-2-yl)-N-({5-[5-(trifluoromethyl)-1,2,4-oxadiazol-3-yl]thiophen-2-yl}methyl)pyrazin-2-amine] | ≤ 10000 | > 10000 | ≤ 10000 | ≤ 10000 | ≤ 10000 | ≤ 10000
Cc1cncc(N(Cc2ccc(-c3noc(C(F)(F)F)n3)s2)c2cncc(C)n2)n1 [Example BX, 6-Methyl-N-(6-methylpyrazin-2-yl)-N-({5-[5-(trifluoromethyl)-1,2,4-oxadiazol-3-yl]thiophen-2-yl}methyl)pyrazin-2-amine] | ≤ 10000 | > 10000 | > 10000 | ≤ 10000 | ≤ 10000 | ≤ 10000

The next lines start with the values.

IC50 (Human HDAC9) [nM] | IC50 (Human HDAC1) [nM] | IC50 (Human HDAC4) [nM] | IC50 (Human HDAC5) [nM] | IC50 (Recombinant human HDAC6) [nM] | IC50 (Human HDAC7) [nM] | SMILES
≤ 10000 | > 10000 | ≤ 10000 | ≤ 1000 | ≤ 1000 | ≤ 10000 | Cc1cc(N(Cc2ccc(-c3noc(C(F)(F)F)n3)s2)c2cnccn2)ncn1 [Example CG, 6-Methyl-N-(pyrazin-2-yl)-N-({5-[5-(trifluoromethyl)-1,2,4-oxadiazol-3-yl]thiophen-2-yl}methyl)pyrimidin-4-amine]
> 10000 | > 10000 | > 10000 | ≤ 10000 | ≤ 10000 | > 10000 | Cc1cc(C)nc(N(Cc2ccc(-c3noc(C(F)(F)F)n3)s2)c2cnccn2)n1 [Example AZ, 4,6-Dimethyl-N-(pyrazin-2-yl)-N-({5-[5-(trifluoromethyl)-1,2,4-oxadiazol-3-yl]thiophen-2-yl}methyl)pyrimidin-2-amine]
≤ 10000 | > 10000 | ≤ 10000 | ≤ 10000 | ≤ 10000 | ≤ 10000 | Cn1ccc2nc(N(Cc3ccc(-c4noc(C(F)(F)F)n4)s3)c3cnccn3)cnc21 [Example BO, N-{5-Methyl-5H-pyrrolo[2,3-b]pyrazin-2-yl}-N-({5-[5-(trifluoromethyl)-1,2,4-oxadiazol-3-yl]thiophen-2-yl}methyl)pyrazin-2-amine]
≤ 1000 | > 10000 | ≤ 1000 | ≤ 1000 | ≤ 10000 | ≤ 1000 | FC(F)(F)c1nccc(N(Cc2ccc(-c3noc(C(F)(F)F)n3)s2)c2cnccn2)n1 [Example CD, N-(Pyrazin-2-yl)-2-(trifluoromethyl)-N-({5-[5-(trifluoromethyl)-1,2,4-oxadiazol-3-yl]thiophen-2-yl}methyl)pyrimidin-4-amine]
≤ 10000 | ≤ 10000 | ≤ 10000 | ≤ 10000 | ≤ 1000 | ≤ 10000 | FC(F)(F)c1cnnc(N(Cc2ccc(-c3noc(C(F)(F)F)n3)s2)c2ccc(N3CCOCC3)nn2)c1 [Example EX, 6-(Morpholin-4-yl)-N-({5-[5-(trifluoromethyl)-1,2,4-oxadiazol-3-yl]thiophen-2-yl}methyl)-N-[5-(trifluoromethyl)pyridazin-3-yl]pyridazin-3-amine]
≤ 10000 | > 10000 | ≤ 1000 | ≤ 10000 | ≤ 10000 | ≤ 10000 | FC(F)(F)c1nc(-c2ccc(CN(c3cnccn3)c3ccnc4ccnn34)s2)no1 [Example CF, N-{Pyrazolo[1,5-a]pyrimidin-7-yl}-N-({5-[5-(trifluoromethyl)-1,2,4-oxadiazol-3-yl]thiophen-2-yl}methyl)pyrazin-2-amine]
≤ 10000 | ≤ 10000 | ≤ 1000 | ≤ 1000 | ≤ 500 | ≤ 1000 | Cn1cc(-c2ccc(N(Cc3ccc(-c4noc(C(F)(F)F)n4)s3)c3cnccn3)nn2)cn1 [Example DO, 6-(1-Methyl-1H-pyrazol-4-yl)-N-(pyrazin-2-yl)-N-({5-[5-(trifluoromethyl)-1,2,4-oxadiazol-3-yl]thiophen-2-yl}methyl)pyridazin-3-amine]
